Data published in patent US20140336259A1, “PHENOLIC COMPOUNDS WITH ANTIOXIDANT AND ANTI-CANCER PROPERTIES, ANALOGS AND SYNTHESIS THEREOF” (priority 2011, published 2014).
≈ marks a conversion by molar mass, not a printed value. Where “and” joins values, the source holds several entries; their conditions need not be identical. Equal values may be shown once. Read-outs that look alike come from different tables or passages of the source.

Assays:
[1] = tested on: MDA-MB-231 (ER negative) human breast cancer cells; assay: MTS antiproliferative/cytotoxicity assay on MDA-MB-231 cells; format: cell-based
[2] = tested on: MCF-7 (estrogen receptor (ER) positive) human breast cancer cells; assay: MTS antiproliferative/cytotoxicity assay on MCF-7 cells; conditions: for MCF-7 IC50: 72 h treatment, mean ± S.D., vs DMSO 0.5% control; for antiproliferative / cytotoxic activity in words: against MCF-7 cells and MDA-MB 231 cells, 72 h of treatment
[3] = tested on: MCF-7 (estrogen receptor (ER) positive) human breast cancer cells
[4] = Homo sapiens, MDA-MB-231, 72 h, 72 h, read-out: IC50 MDA-MB-231 72 h
[5] = Homo sapiens, MDA-MB-231, 72 h, 72 h treatment, mean ± S.D., vs DMSO 0.5% control, read-out: MDA-MB-231 IC50
[6] = Homo sapiens, MDA-MB-231, 96 h, 96 h, read-out: IC50 MDA-MB-231 96 h
[7] = read-out: IC50 MCF-7 48 h, 48 h
[8] = read-out: IC50 MCF-7 72 h, 72 h
[9] = read-out: IC50 MCF-7 96 h, 96 h
[10] = Homo sapiens, MDA-MB-231, 24 h, 24 h, read-out: IC50 MDA-MB-231 24 h
[11] = Homo sapiens, MDA-MB-231, 48 h, read-out: IC50 MDA-MB-231 48 h, 48 h
[12] = read-out: IC50 MCF-7 24 h, 24 h
[13] = 24 h, read-out: IC50 MDA-MB-231 24 h
[14] = 72 h, read-out: IC50 MDA-MB-231 72 h
[15] = 72 h treatment, mean ± S.D., vs DMSO 0.5% control
[16] = 96 h, read-out: IC50 MDA-MB-231 96 h
[17] = read-out: IC50 MDA-MB-231 48 h, 48 h

Compound	IC50 [1, 4]	IC50 [1, 5] [µg/mL]	IC50 [1, 6]	IC50 MCF-7 48 h ([2]; 48 h) [µg/mL]	MCF-7 IC50 [2] [µg/mL]	IC50 MCF-7 96 h ([2]; 96 h) [µg/mL]	antiproliferative / cytotoxic activity in words [2]	IC50 [2, 7] [µM]	IC50 [2, 8] [µM]	IC50 [2, 9] [µM]	IC50 [1, 11]	IC50 MCF-7 24 h ([2]; 24 h) [µg/mL]	IC50 [2, 12] [µM]	also measured
OCc1cc(CCCCCCCCCCCCc2ccc(O)c(CO)c2)ccc1O [TRD5]	81.6 µg/mL and 197 µM	62.9 to 77.4	78.2 µg/mL and 189 µM	80.9 (≈ 195 µM)	75.9 ± 1.9	66.5 (≈ 160 µM)	moderate cytotoxic activity	195	183	160	–	–	–	–
COc1cc(C(O)c2ccc(OCc3ccccc3)c(OC)c2)ccc1OCc1ccccc1 [QB46]	62.9 µg/mL and 138 µM	62.9 to 77.4	53 µg/mL and 116 µM	59.5 (≈ 130 µM)	44.8 ± 1.7	36.8 (≈ 80.6 µM)	moderate cytotoxic activity	130	98.1	80.7	72.4 µg/mL and 159 µM	73.2 (≈ 160 µM)	160	IC50 [1, 10]: 78.3 µg/mL and 172 µM
COc1ccc(C(O)(c2ccc(OC)c(Br)c2)c2ccc(OC)c(Br)c2)cc1Br [TRD9]	97.8 µg/mL and 167 µM	97.8 ± 3.5	89.9 µg/mL and 153 µM	102.5 (≈ 175 µM)	91.4 ± 3.4	82.3 (≈ 140 µM)	–	175	156	140	108 µg/mL and 183 µM	110.7 (≈ 189 µM)	189	IC50 [1, 10]: 115 µg/mL and 196 µM
COc1ccc(C(O)(c2ccc(OC)c(F)c2)c2ccc(OC)c(F)c2)cc1F [TRD7]	–	–	–	32.7 (≈ 80.9 µM)	–	23.2 (≈ 57.4 µM)	highest antiproliferative activities	80.9	61.3	57.3	–	42.3 (≈ 105 µM)	105	IC50 MDA-MB-231 24 h ([1]; 24 h): 36.4 µg/mL (≈ 90 µM); IC50 [1, 13]: 90 µM; IC50 MDA-MB-231 48 h ([1]; 48 h): 30.4 µg/mL (≈ 75.2 µM); IC50 MDA-MB-231 72 h ([1]; 72 h): 24.0 µg/mL (≈ 59.3 µM); IC50 [1, 14]: 59.4 µM; MDA-MB-231 IC50 [1, 15]: 24.0 ± 2.1 µg/mL; IC50 MDA-MB-231 96 h ([1]; 96 h): 15.6 µg/mL (≈ 38.6 µM); IC50 [1, 16]: 38.7 µM; IC50 [1, 17]: 75.3 µM; IC50 MCF-7 72 h ([2]; 72 h): 24.8 µg/mL (≈ 61.3 µM)
COc1ccc(C(O)(c2ccc(OC)c(Cl)c2)c2ccc(OC)c(Cl)c2)cc1Cl [TRD10]	77.4 µg/mL and 170 µM	62.9 to 77.4	68.7 µg/mL and 151 µM	81.9 (≈ 180 µM)	73.5 ± 1.8	54.4 (≈ 120 µM)	–	180	162	120	85.8 µg/mL and 189 µM	87.0 (≈ 192 µM)	192	antiproliferative / cytotoxic activity in words [3]: moderate cytotoxic activity
COc1cc(C(CO)C(c2ccc(O)c(OC)c2)c2ccc(O)c(OC)c2)ccc1O (stereo not drawn) [QUEBECOL SYNTHETIC, 4,4′,4″-(3-Hydroxypropane-1,1,2-triyl)tris(2-methoxyphenol)]	–	–	–	54.2 (≈ 127 µM)	44.4 ± 1.8	38.0 (≈ 89.1 µM)	–	127	104	89.1	–	67.2 (≈ 158 µM)	158	IC50 MDA-MB-231 24 h ([1]; 24 h): 72.5 µg/mL (≈ 170 µM); IC50 [1, 13]: 170 µM; IC50 MDA-MB-231 48 h ([1]; 48 h): 55.6 µg/mL (≈ 130 µM); IC50 MDA-MB-231 72 h ([1]; 72 h): 48.5 µg/mL (≈ 114 µM); IC50 [1, 14]: 114 µM; MDA-MB-231 IC50 [1, 15]: 48.5 ± 1.9 µg/mL; IC50 MDA-MB-231 96 h ([1]; 96 h): 43.8 µg/mL (≈ 103 µM); IC50 [1, 16]: 103 µM; IC50 [1, 17]: 130 µM
COC(=O)c1cc(C(O)(c2ccc(O)c(C(=O)OC)c2)c2ccc(O)c(C(=O)OC)c2)ccc1O [TRD1]	93.9 µg/mL and 195 µM	93.9 ± 2.4	89.4 µg/mL and 185 µM	89.1 (≈ 185 µM)	84.1 ± 3.4	78.3 (≈ 162 µM)	–	185	174	162	–	94.2 (≈ 195 µM)	195	–
COc1ccc(C(O)(c2ccc(OC)c(C=O)c2)c2ccc(OC)c(C=O)c2)cc1C=O [TRD8]	17.4 µg/mL and 40 µM	17.5 to 24	11.2 µg/mL and 25.8 µM	21.8 (≈ 50.2 µM)	10.6 ± 2.1	7.0 (≈ 16.1 µM)	highest antiproliferative activities	50.1	24.3	16.2	27.8 µg/mL and 63.9 µM	42.0 (≈ 96.7 µM)	96.7	IC50 [1, 10]: 43.5 µg/mL and 100 µM
CCOC(=O)C(c1ccc(O)c(OC)c1)C(c1ccc(O)c(OC)c1)c1ccc(O)c(OC)c1 (stereo not drawn) [QB57]	85.1 µg/mL and 182 µM	85.1 ± 1.8	73.8 µg/mL and 158 µM	–	–	–	–	–	–	–	–	–	–	–
COc1ccc(C(O)(c2ccc(OC)c(O)c2)c2ccc(OC)c(O)c2)cc1O [TRD6]	75.2 µg/mL and 189 µM	62.9 to 77.4	71.5 µg/mL and 179 µM	66.1 (≈ 166 µM)	60.4 ± 1.9	43.6 (≈ 109 µM)	moderate cytotoxic activity	166	152	109	–	78.7 (≈ 198 µM)	198	–
CCOC(=O)C(c1ccc(OCc2ccccc2)c(OC)c1)C(c1ccc(OCc2ccccc2)c(OC)c1)c1ccc(OCc2ccccc2)c(OC)c1 (stereo not drawn) [QB56]	136 µg/mL and 185 µM	136 ± 3.7	129 µg/mL and 176 µM	–	138.1 ± 3.1	124.9 (≈ 169 µM)	–	–	188	170	143 µg/mL and 195 µM	–	–	–
COc1cc(C(O)c2ccccc2OC)ccc1OCc1ccccc1 (stereo not drawn) [QB12]	67.2 µg/mL and 192 µM	62.9 to 77.4	58 µg/mL and 165 µM	–	65.0 ± 1.4	59.6 (≈ 170 µM)	moderate cytotoxic activity	–	185	170	–	–	–	–
